Results on one compound are retold here after patent publication US20250161446A1, “MODIFIED IMMUNE CELLS FOR TREATING AND/OR PREVENTING METASTASIS” (TECHNISCHE UNIVERSITÄT MÜNCHEN, priority 2022, published 2025).

One assay concerns human NK cells. Briefly: Human NK cell cytokine production upon stimulation with K562 (flow cytometry). The assay is classed as cell-based. To be noted: PGE2 16 h. The text has this:
(§1) Human NK cells and CD8+ T cells were isolated from blood of healthy, voluntary donors after they gave written and informed consent. Blood was mixed with PBS and loaded on Pancoll to isolate peripheral blood mononuclear cells (PBMCs) through centrifugation. NK cells were then isolated by negative selection using the Untouched Human NK Cell Isolation Kit (ThermoFisher). CD8+ T cells were then isolated by negative selection using the Untouched Human CD8+ T Cell Isolation Kit (Miltenyi).
(§2) Murine or human NK cells or CD8^+ T cells were treated with 1-100 ng/ml synthetic PGE2 or medium as control for 16 h at 37° C. For experiments with tumor factors (TF), cells were incubated in a 1:1 mixture of complete RPMI medium with TF-containing conditioned medium from cancer cells. For the inhibitor studies, cells were first incubated with single EP receptor inhibitors (EP1-EP4) or inhibitor combinations at a concentration of 5 μM for 30 min, before adding 100 ng/ml PGE2 for 16 h at 37° C. […]
(§3) For flow cytometric analysis, cells were resuspended in staining buffer containing antibodies for surface molecules and incubated for 15 min. […] Intracellular staining of cytokines (including IFNγ and TNF) was performed in permeabilization buffer and cells were subsequently analyzed by flow cytometry. […]

For assay [1], the system named is NK cells. Briefly: NK cell degranulation (LAMP-1 staining) upon anti-NK1.1 stimulation. The class given is cell-based, mouse. To be noted: PGE2 pre-treatment 16 h. As for the experimental part:
(§4) For the isolation of mouse NK cells, the spleen was excised from mice and passed through a steel sieve. Red blood cells were lysed by incubating the cells with ammonium chloride potassium buffer for 2 min. Following filtration through a 70 μm cell strainer, CD49b^+ leukocytes were purified by immunomagnetic separation to enrich for CD49b^+ NK cells. Th cells were stained with anti-CD49b FITC, anti-CD3ε PerCP/Cy5.5, anti-CD19 PE/eF610 and CD64 PE/Cy7 for 15 min at 4° C. and NK cells, phenotypically identified as CD49b^+CD3ε^−CD19^−CD64^− cells, were FACS-sorted using a SH800 Cell Sorter. After isolation, NK cells were cultured in low doses of IL2 and IL15/IL15Ra for five days to rest the cells and generate functional NK cells.
Murine or human NK cells or CD8^+ T cells were treated with 1-100 ng/ml synthetic PGE2 or medium as control for 16 h at 37° C. For experiments with tumor factors (TF), cells were incubated in a 1:1 mixture of complete RPMI medium with TF-containing conditioned medium from cancer cells. For the inhibitor studies, cells were first incubated with single EP receptor inhibitors (EP1-EP4) or inhibitor combinations at a concentration of 5 μM for 30 min, before adding 100 ng/ml PGE2 for 16 h at 37° C. For the RNA and ATAC sequencing approach, NK cells were only pre-treated for 1 h with PGE2 and then stimulated (as described below) for further 4 h. […]

The subject of the next assay is mouse CD8^+ T cells. Briefly: Mouse CD8^+ T cell expansion after anti-CD3/CD28+IL-12 stimulation. The assay is classed as cell-based. To be noted: PGE2 16 h, expansion 72 h later. As for the experimental part:
For the isolation of mouse CD8^+ T cells, the spleen was excised from mice and passed through a steel sieve. Red blood cells were lysed by incubating the cells with ammonium chloride potassium buffer for 2 min. Following filtration through a 70 μm cell strainer, CD8^+ T cells were purified by immunomagnetic separation using anti-CD8 microbeads. After isolation, CD8^+ T cells were cultured with low dose IL2 and CD3/CD28 stimulatory beads to generate effector-like CD8+ T cells for in vitro assays.
as §2
(§5) To assess T cell differentiation and expansion, CD8^+ T cells were stimulated with anti-CD3/CD28 microbeads plus Interleukin-12 (10 ng/ml), mimicking their activation in metastasis or tumor tissue, and cell numbers were quantified 72 h later by flow cytometry.

A further assay deals with human CD8^+ T cells. Briefly: Human CD8^+ T cell expansion after anti-CD3/CD28+IL-12 stimulation. The assay is classed as cell-based. The settings on record: PGE2 16 h, expansion 72 h later.
From the text: as §1
Murine or human NK cells or CD8^+ T cells were treated with 1-100 ng/ml synthetic PGE2 or medium as control for 16 h at 37° C. For experiments with tumor factors (TF), cells were incubated in a 1:1 mixture of complete RPMI medium with TF-containing conditioned medium from cancer cells. For the inhibitor studies, cells were first incubated with single EP receptor inhibitors (EP1-EP4) or inhibitor combinations at a concentration of 5 μM for 30 min, before adding 100 ng/ml PGE2 for 16 h at 37° C. For the RNA and ATAC sequencing approach, NK cells were only pre-treated for 1 h with PGE2 and then stimulated (as described below) for further 4 h.
as §5

In another assay the test system is BRAF^V600E tumor cells. Briefly: NK cell cytotoxicity assay (xCelligence impedance). The assay is classed as cell-based, mouse. To be noted: PGE2-treated NK cells co-cultured with tumor cells. The protocol: Measurement of the dynamics of NK cell cytotoxicity against BRAF^V600E tumor cells over time was performed with the impedance-based technology using an xCelligence RTCA MP device (ACEA Biosciences). The xCELLigence RTCA system measures changes in impedance generated by adherence of cells to electrodes on the bottom of the wells of E-Plates and calculates a parameter called Cell Index. For the assays, tumor cells were seeded in 96-well E-plates. After tumor cells reached confluency and a maximum cell index, in vitro cultured NK cells were added in different effector-to-target ratios. Killing was measured by declining cell index values. Percentage of specific cytotoxicity was finally calculated to the index values from tumor cells alone.

Assay [2] deals with NK cells. Briefly: Granzyme B expression in NK cells by flow cytometry. The class given is cell-based, mouse. The settings on record: untreated vs PGE2-treated NK cells. The protocol: as §4
Murine or human NK cells or CD8^+ T cells were treated with 1-100 ng/ml synthetic PGE2 or medium as control for 16 h at 37° C. For experiments with tumor factors (TF), cells were incubated in a 1:1 mixture of complete RPMI medium with TF-containing conditioned medium from cancer cells. […]
as §3

In assay [3] the test system is NK cells. Briefly: Cytokine release assay of mouse NK cells upon anti-NK1.1 stimulation (ELISA, multiplex). The class given is cell-based. The protocol:
as §4
For experiments with tumor factors (TF), cells were incubated in a 1:1 mixture of complete RPMI medium with TF-containing conditioned medium from cancer cells. For the inhibitor studies, cells were first incubated with single EP receptor inhibitors (EP1-EP4) or inhibitor combinations at a concentration of 5 μM for 30 min, before adding 100 ng/ml PGE2 for 16 h at 37° C. For the RNA and ATAC sequencing approach, NK cells were only pre-treated for 1 h with PGE2 and then stimulated (as described below) for further 4 h.
To assess cytokine and chemokine production and degranulation, NK cells were stimulated with plate-bound anti-NK1.1 (PK136), mimicking their activation in metastasis. Human NK cells were activated by incubation with the human […] cell line K562. For analysis of cytokine and chemokine production, Brefeldin A was added 1 h after stimulation to block intracellular protein transport processes. 3 h later, cells were stained for flow cytometric analysis. For analysis of degranulation, stimulation was done in presence of anti-LAMP-1 antibody, and Monensin was added 1 h later to prevent acidification of endolytic vesicles.
To assess the production of cytokines in cell culture supernatants, NK cells were stimulated for 16 h and cell-free supernatants were harvested and stored at −20° C. until further use. Cytokine concentrations in the culture supernatants were measured by enzyme-linked immunosorbent assays (ELISA) or a multiplex cytokine assay (Bio-Plex Pro Mouse Cytokine 23-plex).

The mark [4] stands for this setting: anti-NK1.1 stimulation in presence of PGE2.

Each structure is given as a SMILES string.

On to `CCCCC[C@H](O)/C=C/[C@H]1[C@H](O)CC(=O)[C@@H]1C/C=C\CCCC(=O)O` [PGE2, prostaglandin E2], for which the “cytokine and chemokine production (IFNγ, TNF, XCL1) by human NK cells” value in the assay with human NK cells is “impaired the cytokine and chemokine production”. In the assay with NK cells [1], the “degranulation (LAMP-1 staining) of NK cells” value is recorded as “only slightly reduced”. Moreover, the “expansion of mouse CD8^+ T cells upon stimulation” value with mouse CD8^+ T cells is listed as “strongly impaired”. For the same compound, in the assay on human CD8^+ T cells, the “expansion of human CD8^+ T cells upon stimulation” value is on record as “Identical findings”. The “NK cell mediated killing of tumor cells” value in the assay with BRAF^V600E tumor cells is recorded as “effectively eliminate the tumor cells”. Further, in the assay with NK cells [2], the “granzyme B levels in NK cells” value is given as “unaffected”. Further, the “XCL1 secretion after transient PGE2 treatment” value with NK cells [3] (PGE2 24 h, then removed for 24 h before anti-NK1.1 stimulation) is “strong inhibitory effects”. In the assay on NK cells [3] (setting [4]), the “IFNγ release by NK cells” value is reported as “markedly reduced in a dose-dependent manner” and the “XCL1 release by NK cells” value is given as “markedly reduced in a dose-dependent manner”. For the same compound, in the assay on NK cells [3] (upon stimulation, multiplex assay), the “secretion of other effector cytokines, chemokines and growth factors by NK cells” value is “diminished the secretion”.
